Tests used:
Type in all cases: biochemical
SMARCA2 [1] = target: T1, SMARCA2 (Homo sapiens, UniProt P51531); experiment: High-throughput screen (HTS) of 40,000 compounds, ATPase assay; conditions: HTS against human SMARCA2
T1 construct: The SMARCA2-1 gene (amino acids 437-1493) encompassing all domains; made in house; host or cells: expiSF9 insect cells (baculovirus, pFASTBac1)
Description: The SMARCA2-1 gene (amino acids 437-1493) encompassing all domains (HAS, BRK, ATPase and Bromodomain) required for DNA binding and ATPase activity were cloned into a pFASTBac1 plasmid for insect cell expression (FIG. 2A). In brief, one positive colony was selected and grown to produce enough bacmid DNA. The purified bacmid DNA was used to transfect expiSF9 insect cells using ExpiFectamine protocol as recommended by the manufacturer (Invitrogen). The P0 virus was first generated from the transfected cells, which was subsequently used to generate a P1 virus stock to have enough virus for several rounds of infections and/or large-scale production of SMARCA2-1 enzyme. Next, the experimental conditions were optimized for highest expression of this enzyme and the cultures scaled up to express and purify the enzyme by successive passage of soluble fraction through affinity, ion-exchange, and size exclusion chromatography steps (FIG. 2B). Next, a 29-mer double stranded DNA termed as DNA_EEPD1 (sequence below) was used to measure ATPase activity of SMARCA2 (FIG. 2C and FIG. 2D) and its inhibition by the small molecules described herein (FIG. 4D).
(§1) In brief, the disclosed ATPase assay is based on the inorganic phosphate (Pi) release from the enzymatic reaction, wherein the substrate 2-amino-6-mercapto-7-methylpurine ribose (MESG) is converted by purine phosphorylase (PNP) to ribose 1-phosphate and 2-amino-6-mercapto-7-methylpurine. This conversion changes the spectrophotometric shift of MSEG absorbance from 330 nm to 360 nm (FIG. 1C and FIG. 1D).
Briefly, human SMARCA2 was purified, and a high-throughput screen (HTS) of 40,000 compounds was conducted. […] When cells reached 90% confluency, cells were harvested, washed twice in 1×PBS, counted using trypan blue exclusion method. […] Cells were monitored for 72 hrs. by live cell imaging method (Incucyte S3) taking images every two hours. The confluency was determined and plotted against time (hours) by using Prism software.

SMARCA2 [2] = target: T1, SMARCA2; experiment: Dose response experiment, ATPase assay
Description: The SMARCA2-1 gene (amino acids 437-1493) encompassing all domains (HAS, BRK, ATPase and Bromodomain) required for DNA binding and ATPase activity were cloned into a pFASTBac1 plasmid for insect cell expression (FIG. 2A). In brief, one positive colony was selected and grown to produce enough bacmid DNA. The purified bacmid DNA was used to transfect expiSF9 insect cells using ExpiFectamine protocol as recommended by the manufacturer (Invitrogen). The P0 virus was first generated from the transfected cells, which was subsequently used to generate a P1 virus stock to have enough virus for several rounds of infections and/or large-scale production of SMARCA2-1 enzyme. […]
as §1
Exemplary compounds were evaluated for their ability to inhibit human SMARCA2 in ATPase assays as detailed in Table 2 below. […]

SMARCA2 [3] = target: T1, SMARCA2; experiment: Secondary ATPase assay
Experimental: Exemplary compounds were evaluated for their ability to inhibit human SMARCA2 in ATPase assays as detailed in Table 2 below. Dose response curves for compound nos.

T1 sequence (P51531 437-1493): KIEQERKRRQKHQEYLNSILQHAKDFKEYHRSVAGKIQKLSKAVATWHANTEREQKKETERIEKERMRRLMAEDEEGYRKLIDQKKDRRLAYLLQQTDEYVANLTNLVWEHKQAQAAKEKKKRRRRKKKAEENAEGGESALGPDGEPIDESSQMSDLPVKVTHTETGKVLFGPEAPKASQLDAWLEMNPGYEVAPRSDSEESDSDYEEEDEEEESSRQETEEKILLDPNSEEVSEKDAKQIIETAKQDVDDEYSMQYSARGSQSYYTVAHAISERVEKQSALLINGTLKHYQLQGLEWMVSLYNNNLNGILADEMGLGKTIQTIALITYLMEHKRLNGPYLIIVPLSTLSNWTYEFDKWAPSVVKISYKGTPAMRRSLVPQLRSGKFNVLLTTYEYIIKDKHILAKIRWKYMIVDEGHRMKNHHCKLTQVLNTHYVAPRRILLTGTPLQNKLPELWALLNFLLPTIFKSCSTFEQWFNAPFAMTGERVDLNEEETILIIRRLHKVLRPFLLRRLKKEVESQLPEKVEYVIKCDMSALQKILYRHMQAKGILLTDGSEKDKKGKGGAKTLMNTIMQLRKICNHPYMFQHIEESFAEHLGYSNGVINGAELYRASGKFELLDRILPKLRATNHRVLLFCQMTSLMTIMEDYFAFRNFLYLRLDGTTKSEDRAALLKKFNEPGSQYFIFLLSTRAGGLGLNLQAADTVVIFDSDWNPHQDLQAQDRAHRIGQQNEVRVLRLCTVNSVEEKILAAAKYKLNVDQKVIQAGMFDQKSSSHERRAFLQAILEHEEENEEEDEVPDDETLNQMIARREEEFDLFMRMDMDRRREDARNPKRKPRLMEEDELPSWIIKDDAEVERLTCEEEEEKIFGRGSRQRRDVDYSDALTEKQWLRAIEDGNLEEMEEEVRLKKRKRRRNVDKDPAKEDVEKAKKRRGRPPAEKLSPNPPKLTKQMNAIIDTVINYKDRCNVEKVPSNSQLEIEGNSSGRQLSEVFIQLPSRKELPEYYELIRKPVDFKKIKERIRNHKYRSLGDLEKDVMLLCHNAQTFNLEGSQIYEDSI

SMILES	% ATPase activity in HTS (SMARCA2 [1]) [%]	IC50 (SMARCA2 [2]) [µM]	IC50 (SMARCA2 [3]) [µM]
O[C@@H]1CC[C@H](Nc2nc(NCc3ccc(Cl)c(Cl)c3)c3ccccc3n2)C1 [Compound 6]	97.3		
COc1cc2nc(NC3CCCC3)nc(NCc3ccc(Cl)c(Cl)c3)c2cc1OC [Compound 7]	26.9	25.3	
Clc1ccc(CNc2nc(NC3CCCC3)nc3ccccc23)cc1Cl [Compound 8]	10.6	14.8	5

Reference: US20250375450A1, “SMARCA2/4 INHIBITION AS A STRATEGY TO TREAT TUMORS THAT HARBOR ABERRANT BAF ASSEMBLIES” (BOARD OF REGENTS, THE UNIVERSITY OF TEXAS SYSTEM, priority 2022, published 2025)
